Results reported in publication PMC5378303 (Nature, 2017).

Molecular target: T1, phi3T AimR receptor (Bacillus phage phi3T, UniProt P0DOE3)
T1 sequence (P0DOE3 1-378): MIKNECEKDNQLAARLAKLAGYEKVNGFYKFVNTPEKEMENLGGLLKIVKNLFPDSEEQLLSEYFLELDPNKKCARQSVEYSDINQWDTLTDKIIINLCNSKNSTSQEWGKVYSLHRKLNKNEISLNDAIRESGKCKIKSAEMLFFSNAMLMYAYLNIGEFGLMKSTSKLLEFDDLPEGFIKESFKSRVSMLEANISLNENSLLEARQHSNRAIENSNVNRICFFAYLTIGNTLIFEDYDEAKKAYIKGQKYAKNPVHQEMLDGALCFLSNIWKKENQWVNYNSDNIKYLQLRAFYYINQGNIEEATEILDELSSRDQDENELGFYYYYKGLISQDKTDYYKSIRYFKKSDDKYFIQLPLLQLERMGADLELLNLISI
Assay: Microscale thermophoresis
Assay type: binding
Conditions: label-free MST, 200 nM AimR, peptide 9-4000 nM, pH 8.0, 23 °C, 3 runs

GMPRGA
binding to phi3T AimR (in words): did not show specific binding to the phi3T AimR receptor
